The source of these data is PMC8071435, “Amorphous Solid Dispersion Tablets Overcome Acalabrutinib pH Effect in Dogs” (Pharmaceutics, 2021).

Details of series [1]: method as in PMID 31306750. The settings on record: cited from earlier work.
Details of series [2]: method as in PMID 31306750. The settings on record: humans; cited from earlier work.
The nature of series [3]: Chemical stability: total impurities (total related substances) by RP-HPLC after storage. Format: physicochemical. The following applies: 40 °C/75% RH/open, perforated seal. The procedure:
The ASD was stored at 40 °C/75% relative humidity (RH) to assess physical and chemical stability under accelerated storage conditions. Initial ASD samples and aged ASDs were analyzed for crystallinity using PXRD, thermal properties using mDSC, changes in morphology or presence of surface crystals using SEM, and chemical degradation by reverse-phase high-performance liquid chromatography (RP-HPLC). The ASD and ASD tablets were stored at ambient and refrigerated conditions to assess the chemical stability at nonaccelerated conditions. Initial and aged ASD samples were analyzed for total related substances using RP-HPLC. See Appendix A.3 for method details.
ASD and ASD tablet samples were analyzed for total related substances using RP-HPLC using a Waters XBridge C8 (150 × 3 mm, 3.5 µm pores) column (Waters Corporation, Milford, MO, USA) at a temperature of 40 °C. Mobile phase was pumped into the column at a flow rate of 0.7 mL/min using a gradient method. 10 mM ammonium acetate was used as mobile phase A and methanol was used as mobile phase B supplied according to the following sequence: 0 min: 20% B, 30 min: 70% B, 40 min: 70% B, 41 min: 20% B, […]. Samples were diluted with 8/2 (v/v) methanol/water and injection volume was 5 µL. The sample tray was held at uncontrolled room temperature. Analysis wavelength was 230 nm and 4 nm bandwidth.
The ASD was stored at 40 °C/75% relative humidity (RH) to assess physical and chemical stability when stored under accelerated conditions. Approximately 100 mg of ASD was placed in a single 4 mL glass vial, with enough glass vials prepared for each storage condition, timepoint and replicate. […] Initial ASD samples and aged ASDs were analyzed for crystallinity using SEM and PXRD, thermal properties using mDSC (in triplicate) and total related substances using RP-HPLC (duplicate analysis).
Additional ASD samples were stored at ambient and refrigerated conditions to assess the chemical stability upon storage at nonaccelerated conditions. […] Initial and aged ASD samples were analyzed for total related substances using RP-HPLC (duplicate analysis). […]

The test system of another series is CYP3A4. More on the design: method as in PMID 31306750. The following applies: humans; cited from earlier work.
On the set-up of series [4]: method as in PMID 31306750. The settings on record: cited from earlier work. This is another data set of the same source.
Details of series [5]: method as in PMID 31306750. The following applies: cited from earlier work. This is another data set of the same source.

Like-named read-outs stand apart in the source and are kept apart here. Marks after values point to notes of the source that are not given here.

With `CC#CC(=O)N1CCC[C@H]1c1nc(-c2ccc(C(=O)Nc3ccccn3)cc2)c2c(N)nccn12` [acalabrutinib], the Crystalline intrinsic solubility in series [1] is given as 48 ^a µg/mL. In addition, the “Fraction metabolized by first-pass liver extraction” value in series [2] is recorded as 50%. For the same compound, in series [3] (4 wk), the “Total impurities after 4 wk” value was determined as 0.70 ± 0.04 area%. The “Total impurities after 12 wk” value in series [3] (12 wk) is 0.94 ± 0.05 area%. In addition, the “Total impurities, initial” value in series [3] (initial (different ASD batch)) is reported as 0.59 ± 0.00 area%. Moreover, the “Fraction metabolized by CYP3A4 in the gut” value in the series with CYP3A4 was “approximately 50%”. The “pKas in physiological range” value was 5.8 in series [4] (higher basic pKa) and 3.5 in series [4] (lower basic pKa). Also, in series [5], the “log P” value is on record as 2.0 ^a.
